According to DBAASP:
In brackets after ≈: the same amount, converted by molar mass. Each block holds one compound with its values, some of them ahead of it.

Key:
Test in all cases: ≥ marks a high value that may be exact or a test limit, other limits are often not marked, values filed in µg/mL are converted to µM
Escherichia coli MG1655 = system: Escherichia coli MG1655
Bacillus subtilis 168 HT = system: Bacillus subtilis 168 HT
[1] = system: Bacillus subtilis ATCC 9372
[2] = system: Burkholderia thailandensis
[3] = system: Bacillus anthracis Sterne 34F2
[4] = system: Staphylococcus epidermidis ATCC 35984
[5] = system: Staphylococcus aureus ATCC 25923
[6] = system: Pseudomonas aeruginosa ATCC 27853
[7] = system: Staphylococcus aureus ATCC 33591
[8] = system: Staphylococcus aureus ATCC 700699
[9] = system: Staphylococcus aureus ATCC 29213
[10] = system: Klebsiella pneumoniae ATCC 700603
[11] = system: Escherichia coli ATCC 25922
[12] = system: Staphylococcus aureus ATCC 6538
[13] = system: Pseudomonas aeruginosa ATCC 15442
[14] = system: Enterococcus faecalis ATCC 29212
Escherichia coli = system: Escherichia coli
Micrococcus luteus A270 = system: Micrococcus luteus A270
Listeria innocua = system: Listeria innocua
[15] = system: Bacillus subtilis ATCC 23857
[16] = system: Staphylococcus aureus USA 300
Escherichia coli UB1005 = system: Escherichia coli UB1005
Candida albicans = system: Candida albicans
[17] = system: Staphylococcus epidermidis
[18] = system: Salmonella enterica serovar Typhimurium
[19] = system: Pseudomonas aeruginosa H103

MIC (Escherichia coli MG1655): ≥ 101 µM | MIC (Bacillus subtilis 168 HT): ≥ 101 µM
Structure (SMILES): CSCC[C@H](NC(=O)[C@H](CCCCN)NC(=O)[C@H](CCCCN)NC(=O)[C@H](CC(C)C)NC(=O)[C@H](CC(C)C)NC(=O)[C@H](CCCN=C(N)N)NC(=O)[C@H](CCCN=C(N)N)NC(=O)[C@H](CCCCN)NC(=O)[C@H](C)N)C(=O)N[C@@H](CCCCN)C(=O)O [AKRRLLKKMK]

Structure (SMILES): CSCC[C@H](NC(=O)[C@H](Cc1ccccc1)NC(=O)CNC(=O)CNC(=O)[C@H](Cc1ccc(O)cc1)NC(=O)[C@H](CCCN=C(N)N)NC(=O)[C@H](CCCCN)NC(=O)[C@H](CCC(=O)O)NC(=O)[C@H](CCSC)NC(=O)[C@H](CCC(=O)O)NC(=O)[C@@H]1CCCN1C(=O)[C@@H]1CCCN1C(=O)[C@H](CCC(=O)O)NC(=O)[C@H](CCCCN)NC(=O)[C@H](CO)NC(=O)[C@H](Cc1ccc(O)cc1)NC(=O)[C@H](CO)NC(=O)[C@H](CCC(=O)O)NC(=O)CNC(=O)[C@H](CCC(=O)O)NC(=O)[C@H](CCC(=O)O)NC(=O)[C@H](CCC(=O)O)NC(=O)[C@H](CO)NC(=O)[C@@H]1CCCN1C(=O)[C@H](CC(C)C)NC(=O)[C@@H]1CCCN1C(=O)[C@H](CCC(=O)O)NC(=O)[C@H](C)NC(=O)[C@H](Cc1ccccc1)NC(C)=O)C(N)=O [FAEPLPSEEEGESYSKEPPEMEKRYGGFM]
MIC [1]: ≥ 100 µM | MIC [2]: ≥ 50 µM | MIC [3]: ≥ 100 µM

MIC [4]: ≥ 181 µM | MIC [5]: > 362 µM | MIC [6]: 45.3 µM (≈ 64 µg/mL) | MIC [7]: ≥ 362 µM
Structure (SMILES): CC(C)C[C@H](NC(=O)[C@@H](N)Cc1ccccc1)C(=O)N[C@@H](CCCCN)C(=O)N[C@@H](CCCCN)C(=O)N[C@@H](C)C(=O)N[C@@H](CCCCN)C(=O)N[C@@H](CCCCN)C(=O)N[C@@H](Cc1ccccc1)C(=O)NCC(=O)N[C@@H](CCCCN)C(=O)N[C@@H](C)C(=O)N[C@@H](Cc1ccccc1)C(N)=O [FLKKAKKFGKAF]

MIC [8]: ≥ 100 µM | MIC [9]: > 100 µM | MIC [10]: 50 µM (≈ 125 µg/mL) | MIC [6]: > 100 µM | MIC [7]: ≥ 100 µM | MIC [11]: 50 µM (≈ 125 µg/mL)
Structure (SMILES): CC[C@H](C)[C@H](NC(=O)[C@H](C)NC(=O)[C@@H](NC(=O)[C@@H](NC(=O)CN)C(C)C)C(C)C)C(=O)N[C@@H](CC(C)C)C(=O)N[C@@H](CCCCN)C(=O)NCC(=O)N[C@@H](C)C(=O)N[C@@H](C)C(=O)N[C@@H](CCCCN)C(=O)N[C@@H](CC(=O)O)C(=O)N[C@H](C(=O)N[C@@H](C)C(=O)NCC(=O)N[C@@H](Cc1cnc[nH]1)C(=O)N[C@@H](CC(C)C)C(=O)N[C@@H](C)C(=O)N[C@@H](CO)C(=O)N[C@@H](CCCCN)C(=O)N[C@H](C(=O)N[C@@H](CCSC)C(=O)N[C@@H](CC(N)=O)C(=O)N[C@@H](CCCCN)C(=O)N[C@@H](CC(C)C)C(N)=O)C(C)C)[C@@H](C)CC [GVVAILKGAAKDIAGHLASKVMNKL]

MIC [8]: ≥ 100 µM | MIC [9]: > 100 µM | MIC [10]: 50 µM (≈ 128 µg/mL) | MIC [6]: 100 µM (≈ 256 µg/mL) | MIC [7]: ≥ 100 µM | MIC [11]: 25 µM (≈ 64.1 µg/mL)
Structure (SMILES): CC[C@H](C)[C@H](NC(=O)[C@H](CC(=O)O)NC(=O)[C@H](CCCCN)NC(=O)[C@H](C)NC(=O)[C@H](C)NC(=O)[C@H](C)NC(=O)[C@H](CCCCN)NC(=O)[C@H](CC(C)C)NC(=O)[C@@H](NC(=O)[C@H](CC(=O)O)NC(=O)[C@@H](NC(=O)[C@@H](NC(=O)CN)C(C)C)C(C)C)[C@@H](C)CC)C(=O)N[C@@H](C)C(=O)NCC(=O)N[C@@H](Cc1cnc[nH]1)C(=O)N[C@@H](CC(C)C)C(=O)N[C@@H](C)C(=O)N[C@@H](CO)C(=O)N[C@@H](CCCCN)C(=O)N[C@H](C(=O)N[C@@H](CCSC)C(=O)N[C@@H](CC(N)=O)C(=O)N[C@@H](CCCCN)C(=O)N[C@@H](CC(C)C)C(N)=O)C(C)C [GVVDILKAAAKDIAGHLASKVMNKL]

MIC [12]: 8990 µM (≈ 12500 µg/mL) | MIC [4]: ≥ 8990 µM | MIC [9]: > 8990 µM | MIC [13]: ≥ 8990 µM | MIC [5]: 8990 µM (≈ 12500 µg/mL) | MIC [14]: > 8990 µM
Structure (SMILES): CC(C)C[C@H](NC(=O)[C@H](C)NC(=O)[C@H](Cc1cnc[nH]1)NC(=O)[C@H](Cc1cnc[nH]1)NC(=O)CNC(=O)[C@H](CC(C)C)NC(=O)[C@@H](N)Cc1cnc[nH]1)C(=O)N[C@@H](CC(=O)O)C(=O)N[C@@H](Cc1cnc[nH]1)C(=O)N[C@@H](CC(C)C)C(=O)N[C@@H](CC(C)C)C(=O)N[C@@H](CCCCN)C(=O)O [HLGHHALDHLLK]

MIC (Escherichia coli): 78.4 µM (≈ 62.5 µg/mL) | MIC (Micrococcus luteus A270): ≥ 39.2 µM | MIC (Listeria innocua): ≥ 39.2 µM
Structure (SMILES): CC(C)C[C@H](NC(=O)[C@H](CO)NC(=O)[C@H](Cc1cnc[nH]1)NC(=O)[C@H](CO)NC(=O)[C@H](CC(C)C)NC(=O)[C@H](CC(C)C)NC(=O)[C@@H](N)CCCCN)C(=O)O [KLLSHSL]

Structure (SMILES): CC[C@H](C)[C@H](NC(=O)CNC(=O)[C@@H](N)CCSC)C(=O)N[C@H](C(=O)N[C@@H](C)C(=O)NCC(=O)N[C@H](C(=O)N[C@H](C(=O)N[C@@H](CCCCN)C(=O)N[C@H](C(=O)N[C@H](C(=O)N[C@@H](CCCCN)C(=O)N[C@@H](CO)C(=O)N[C@@H](CC(C)C)C(=O)N[C@H](C(=O)N[C@@H](CCC(=O)O)C(=O)N[C@@H](CCC(N)=O)C(=O)N[C@@H](Cc1ccccc1)C(=O)N[C@H](C(=O)NCC(=O)N[C@@H](CCCCN)C(=O)O)[C@@H](C)O)[C@@H](C)CC)[C@@H](C)CC)C(C)C)[C@@H](C)CC)[C@@H](C)CC)[C@@H](C)CC [MGIIAGIIKVIKSLIEQFTGK]
MIC [4]: ≥ 64 µM | MIC [15]: ≥ 128 µM | MIC [16]: ≥ 64 µM | MIC [11]: > 128 µM

Structure (SMILES): CC[C@H](C)[C@H](NC(=O)CNC(=O)[C@@H](NC(=O)[C@H](CCCCN)NC(=O)[C@H](CCCCN)NC(=O)CNC(=O)[C@@H](NC(=O)[C@H](CCCCN)NC(=O)[C@H](Cc1c[nH]c2ccccc12)NC(=O)[C@H](CCCCN)NC(=O)[C@H](CCSC)NC(C)=O)[C@@H](C)CC)[C@@H](C)CC)C(=O)NCC(=O)N[C@@H](CCCCN)C(=O)N[C@@H](Cc1ccccc1)C(=O)N[C@@H](CC(C)C)C(=O)N[C@@H](Cc1cnc[nH]1)C(=O)N[C@@H](CO)C(=O)N[C@@H](C)C(=O)N[C@@H](CCCCN)C(=O)N[C@@H](CCCCN)C(=O)N[C@@H](Cc1ccccc1)C(=O)N[C@@H](CC(N)=O)C(N)=O [MKWKIGKKIGIGKFLHSAKKFN]
MIC [1]: ≥ 100 µM | MIC [2]: ≥ 50 µM | MIC [3]: ≥ 100 µM

MIC (Escherichia coli MG1655): ≥ 71.5 µM | MIC (Bacillus subtilis 168 HT): ≥ 71.5 µM
Structure (SMILES): CC(C)[C@H](NC(=O)[C@H](CCC(N)=O)NC(=O)[C@H](CS)NC(=O)[C@H](C)NC(=O)[C@H](CCCCN)NC(=O)[C@H](CCCN=C(N)N)NC(=O)[C@H](CC(N)=O)NC(=O)[C@H](CCCCN)NC(=O)[C@H](CCCCN)NC(=O)[C@H](Cc1c[nH]c2ccccc12)NC(=O)[C@@H](NC(=O)[C@H](CCCCN)NC(=O)CNC(=O)[C@@H](N)CC(N)=O)[C@@H](C)O)C(=O)N[C@@H](CCCCN)C(=O)O [NGKTWKKNRKACQVK]

MIC (Escherichia coli UB1005): 5.3 µM (≈ 7.44 µg/mL) | MIC (Candida albicans): 21.3 µM (≈ 29.9 µg/mL) | MIC [17]: 1.3 µM (≈ 1.82 µg/mL) | MIC [5]: 1.3 µM (≈ 1.82 µg/mL) | MIC [18]: 5.3 µM (≈ 7.44 µg/mL) | MIC [19]: ≥ 42.6 µM | MIC [14]: 5.3 µM (≈ 7.44 µg/mL)
Structure (SMILES): CC[C@H](C)[C@H](NC(=O)[C@@H](N)CCCN=C(N)N)C(=O)N[C@@H](CCCN=C(N)N)C(=O)N[C@@H](CCCN=C(N)N)C(=O)N[C@@H](Cc1c[nH]c2ccccc12)C(=O)N[C@@H](CCCCN)C(=O)N[C@@H](Cc1ccccc1)C(=O)N[C@@H](CCCN=C(N)N)C(=O)N[C@@H](Cc1c[nH]c2ccccc12)C(=O)O [RIRRWKFRW]

MIC (Escherichia coli UB1005): 4.1 µM (≈ 6.04 µg/mL) | MIC (Candida albicans): 4.1 µM (≈ 6.04 µg/mL) | MIC [17]: 0.5 µM (≈ 0.736 µg/mL) | MIC [5]: 2.1 µM (≈ 3.09 µg/mL) | MIC [18]: 8.3 µM (≈ 12.2 µg/mL) | MIC [19]: 16.6 µM (≈ 24.4 µg/mL) | MIC [14]: 4.1 µM (≈ 6.04 µg/mL)
Structure (SMILES): CC(C)C[C@H](NC(=O)[C@@H](N)CCCN=C(N)N)C(=O)N[C@@H](Cc1c[nH]c2ccccc12)C(=O)N[C@@H](Cc1c[nH]c2ccccc12)C(=O)N[C@@H](Cc1c[nH]c2ccccc12)C(=O)N[C@@H](Cc1c[nH]c2ccccc12)C(=O)N[C@@H](CCCN=C(N)N)C(=O)N[C@@H](CCCN=C(N)N)C(=O)N[C@@H](CCCCN)C(=O)O [RLWWWWRRK]
